This is an account of results in US20230139171A1 (SITA Information Networking Computing UK Limited, priority 2019, published 2023).

Molecules are shown by their SMILES. pIC50: −log10 of the molar value.

What all share (format): cell-based
In experiment [1] the target is T1, human TLR8 (Homo sapiens, UniProt Q9NR97).
T1 construct: host or cells: HEK-Blue cells
T1 sequence (Q9NR97 27-1041): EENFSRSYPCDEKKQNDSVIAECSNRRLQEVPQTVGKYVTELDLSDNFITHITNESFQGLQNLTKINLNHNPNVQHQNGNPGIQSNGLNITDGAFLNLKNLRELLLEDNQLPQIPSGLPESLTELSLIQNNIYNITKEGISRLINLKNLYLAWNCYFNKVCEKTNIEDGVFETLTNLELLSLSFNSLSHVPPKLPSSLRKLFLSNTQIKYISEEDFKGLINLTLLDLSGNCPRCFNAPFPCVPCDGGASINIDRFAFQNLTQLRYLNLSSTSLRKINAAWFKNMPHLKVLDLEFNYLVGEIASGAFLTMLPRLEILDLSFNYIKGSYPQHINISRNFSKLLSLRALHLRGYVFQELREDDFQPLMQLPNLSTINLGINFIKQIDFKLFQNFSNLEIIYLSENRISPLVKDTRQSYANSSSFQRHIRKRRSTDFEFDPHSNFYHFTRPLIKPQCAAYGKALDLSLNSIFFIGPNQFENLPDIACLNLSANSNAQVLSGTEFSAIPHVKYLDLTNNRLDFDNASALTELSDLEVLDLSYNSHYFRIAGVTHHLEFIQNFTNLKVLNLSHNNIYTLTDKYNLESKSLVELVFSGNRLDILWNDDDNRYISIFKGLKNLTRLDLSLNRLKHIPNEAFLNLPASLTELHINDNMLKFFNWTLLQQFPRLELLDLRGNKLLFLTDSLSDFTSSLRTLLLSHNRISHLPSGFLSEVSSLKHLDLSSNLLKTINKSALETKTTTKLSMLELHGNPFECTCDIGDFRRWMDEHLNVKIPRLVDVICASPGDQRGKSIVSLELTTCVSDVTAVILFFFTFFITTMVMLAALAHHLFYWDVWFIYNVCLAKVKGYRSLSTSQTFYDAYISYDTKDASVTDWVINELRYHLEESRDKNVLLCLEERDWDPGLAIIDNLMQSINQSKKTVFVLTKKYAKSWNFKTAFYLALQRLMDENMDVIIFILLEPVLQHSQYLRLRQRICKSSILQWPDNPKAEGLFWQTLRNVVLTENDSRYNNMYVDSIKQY
Put plainly: TLR8 inhibition reporter assay (HEK-Blue cells, SEAP reporter, R848 stimulation). To be noted: HEK-Blue cells overexpressing human TLR8, SEAP reporter, R848 15.9 μM; read-out: TLR8 IC50. The method, boiled down: (§1)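 Agonists used: gardiquimod 7.5 μM (TLR7), R848 15.9 μM (TLR8), ODN2006 5 nM (TLR9), added after 30 min room-temperature compound pre-treatment (0.05 nM–50 μM) of receptor-overexpressing HEK-Blue cells. SEAP reporter (NF-κB/AP-1 driven) read after 22 h at 37 °C; inhibition scaled between agonist+DMSO and reference-inhibitor wells.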
On the technique in general: Reporter assays use an easily measured gene product as a stand-in for the process of interest.

For experiment [2], the target named is T2, human TLR7 (Homo sapiens, UniProt Q9NYK1).
T2 construct: host or cells: HEK-Blue cells
T2 sequence (Q9NYK1 27-1049): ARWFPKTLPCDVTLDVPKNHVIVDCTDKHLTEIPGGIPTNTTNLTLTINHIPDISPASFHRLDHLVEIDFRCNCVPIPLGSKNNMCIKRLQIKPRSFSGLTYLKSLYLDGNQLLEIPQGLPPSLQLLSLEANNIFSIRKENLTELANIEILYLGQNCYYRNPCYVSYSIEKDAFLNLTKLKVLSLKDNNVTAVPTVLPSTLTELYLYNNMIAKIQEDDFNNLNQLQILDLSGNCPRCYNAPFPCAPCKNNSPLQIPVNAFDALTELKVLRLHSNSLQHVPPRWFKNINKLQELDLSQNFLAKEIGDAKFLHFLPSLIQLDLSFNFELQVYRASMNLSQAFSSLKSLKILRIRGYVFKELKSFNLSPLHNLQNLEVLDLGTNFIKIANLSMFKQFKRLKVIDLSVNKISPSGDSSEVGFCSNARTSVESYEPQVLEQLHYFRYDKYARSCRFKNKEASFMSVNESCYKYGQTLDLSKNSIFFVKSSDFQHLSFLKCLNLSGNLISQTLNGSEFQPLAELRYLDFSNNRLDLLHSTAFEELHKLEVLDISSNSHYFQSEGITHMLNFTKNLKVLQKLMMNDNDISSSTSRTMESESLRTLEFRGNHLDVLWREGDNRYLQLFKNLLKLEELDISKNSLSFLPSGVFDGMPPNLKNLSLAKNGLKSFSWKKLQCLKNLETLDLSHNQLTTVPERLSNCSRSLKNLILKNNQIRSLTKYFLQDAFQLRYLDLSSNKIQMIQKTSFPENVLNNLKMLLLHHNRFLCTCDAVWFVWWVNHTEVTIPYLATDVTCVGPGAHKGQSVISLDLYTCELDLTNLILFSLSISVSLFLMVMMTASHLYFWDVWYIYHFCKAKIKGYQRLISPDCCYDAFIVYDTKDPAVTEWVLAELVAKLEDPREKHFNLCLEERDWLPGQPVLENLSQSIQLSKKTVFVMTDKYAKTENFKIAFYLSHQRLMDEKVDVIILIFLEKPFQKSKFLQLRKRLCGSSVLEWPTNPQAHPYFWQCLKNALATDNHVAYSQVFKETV
Put plainly: TLR7 inhibition reporter assay (HEK-Blue cells, SEAP reporter, gardiquimod stimulation). To be noted: HEK-Blue cells overexpressing human TLR7, SEAP reporter, gardiquimod 7.5 μM; read-out: TLR7 IC50. Summed up: as §1

Experiment [3] concerns the target T3, human TLR9 (Homo sapiens, UniProt Q9NR96).
T3 construct: host or cells: HEK-Blue cells
T3 sequence (Q9NR96 26-1032): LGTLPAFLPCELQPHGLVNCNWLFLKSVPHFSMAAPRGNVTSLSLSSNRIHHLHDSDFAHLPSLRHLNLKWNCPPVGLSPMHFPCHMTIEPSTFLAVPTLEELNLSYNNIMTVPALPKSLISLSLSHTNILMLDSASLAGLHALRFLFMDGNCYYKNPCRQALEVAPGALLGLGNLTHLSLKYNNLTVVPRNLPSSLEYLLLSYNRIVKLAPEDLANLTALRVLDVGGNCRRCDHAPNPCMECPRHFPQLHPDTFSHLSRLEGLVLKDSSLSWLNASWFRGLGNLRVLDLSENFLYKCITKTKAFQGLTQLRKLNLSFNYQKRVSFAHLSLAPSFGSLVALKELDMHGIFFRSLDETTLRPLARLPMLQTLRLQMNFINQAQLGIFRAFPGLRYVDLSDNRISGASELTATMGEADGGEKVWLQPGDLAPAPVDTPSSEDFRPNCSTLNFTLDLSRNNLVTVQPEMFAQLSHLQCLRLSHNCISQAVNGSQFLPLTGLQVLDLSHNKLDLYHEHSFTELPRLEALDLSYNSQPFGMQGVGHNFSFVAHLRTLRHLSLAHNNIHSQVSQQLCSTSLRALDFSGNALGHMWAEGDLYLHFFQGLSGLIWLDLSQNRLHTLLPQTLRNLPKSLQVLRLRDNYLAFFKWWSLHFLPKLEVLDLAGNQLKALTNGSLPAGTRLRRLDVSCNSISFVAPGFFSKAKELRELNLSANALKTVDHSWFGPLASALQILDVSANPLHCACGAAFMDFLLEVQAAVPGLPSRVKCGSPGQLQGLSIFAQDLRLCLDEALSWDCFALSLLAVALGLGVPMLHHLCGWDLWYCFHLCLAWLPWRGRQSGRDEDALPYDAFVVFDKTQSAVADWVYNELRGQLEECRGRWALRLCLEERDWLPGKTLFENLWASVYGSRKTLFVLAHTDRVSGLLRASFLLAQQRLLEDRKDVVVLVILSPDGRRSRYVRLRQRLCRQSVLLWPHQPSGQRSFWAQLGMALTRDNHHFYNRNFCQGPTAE
Put plainly: TLR9 inhibition reporter assay (HEK-Blue cells, SEAP reporter, ODN2006 stimulation). Particulars: HEK-Blue cells overexpressing human TLR9, SEAP reporter, ODN2006 5 nM. The method, boiled down: as §1

Usually pIC50 stands for the IC50 on a negative log10 scale, so that one unit is a factor of ten. With `Cc1c(-c2[nH]c3sc(C4CCC(NC5CCOCC5)CC4)nc3c2C(C)C)cn(C)c(=O)c1C` (single isomer, unassigned) [Example 249, 5-(6-isopropyl-2-(4-((tetrahydro-2H-pyran-4-yl)amino)cyclohexyl)-4H-pyrrolo[3,2-d]thiazol-5-yl)-1,3,4-trimethylpyridin-2(1H)-one], the negative-log IC50 (pIC50) in experiment [1] is 8.92; in experiment [2], 8.20; in experiment [3], 4.70.
The matching figures for `Cc1c(-c2[nH]c3sc(C4CCC(NC5CCOCC5)CC4)nc3c2C(C)C)cn(C)c(=O)c1C` (single isomer, unassigned) [Example 250, 5-(6-isopropyl-2-(4-((tetrahydro-2H-pyran-4-yl)amino)cyclohexyl)-4H-pyrrolo[3,2-d]thiazol-5-yl)-1,3,4-trimethylpyridin-2(1H)-one]: 7.36, 7.33 and 4.36.
For `Cc1c(-c2[nH]c3sc(C4CCC(NCC(C)(C)O)CC4)nc3c2C(C)C)cn(C)c(=O)c1C` (single isomer, unassigned) [Example 251, 5-(2-(4-((2-hydroxy-2-methylpropyl)amino)cyclohexyl)-6-isopropyl-4H-pyrrolo[3,2-d]thiazol-5-yl)-1,3,4-trimethylpyridin-2(1H)-one], the pIC50 in experiment [1] was 8.57; in experiment [2], 7.97; in experiment [3] it was 4.34.
Turning to `Cc1c(-c2[nH]c3sc(C4CCC(NCC(C)(C)O)CC4)nc3c2C(C)C)cn(C)c(=O)c1C` (single isomer, unassigned) [Example 252, 5-(2-(4-((2-hydroxy-2-methylpropyl)amino)cyclohexyl)-6-isopropyl-4H-pyrrolo[3,2-d]thiazol-5-yl)-1,3,4-trimethylpyridin-2(1H)-one], the negative-log IC50 (pIC50) in experiment [1] is 7.45; in experiment [2], 7.17; in experiment [3], less than 4.30.
For `Cc1c(-c2[nH]c3sc(C4CCC(NC(C)C)CC4)nc3c2C(C)C)cn(C)c(=O)c1C` (single isomer, unassigned) [Example 253, 5-(6-isopropyl-2-(4-(isopropylamino)cyclohexyl)-4H-pyrrolo[3,2-d]thiazol-5-yl)-1,3,4-trimethylpyridin-2(1H)-one], the pIC50 in experiment [1] was 8.52; in experiment [2] it was 8.33; in experiment [3] it was 4.64.
The matching figures for `Cc1c(-c2[nH]c3sc(C4CCC(NC(C)C)CC4)nc3c2C(C)C)cn(C)c(=O)c1C` (single isomer, unassigned) [Example 254, 5-(6-isopropyl-2-(4-(isopropylamino)cyclohexyl)-4H-pyrrolo[3,2-d]thiazol-5-yl)-1,3,4-trimethylpyridin-2(1H)-one]: 7.64, 7.57 and 4.54.
The like results for `Cc1c(-c2[nH]c3sc(C4CCC(N5CCC5)CC4)nc3c2C(C)C)cn(C)c(=O)c1C` (single isomer, unassigned) [Example 255, 5-(2-(4-(azetidin-1-yl)cyclohexyl)-6-isopropyl-4H-pyrrolo[3,2-d]thiazol-5-yl)-1,3,4-trimethylpyridin-2(1H)-one] were, in that order, 8.31, 8.16 and 4.82.
The matching figures for `Cc1c(-c2[nH]c3sc(C4CCC(N5CCC5)CC4)nc3c2C(C)C)cn(C)c(=O)c1C` (single isomer, unassigned) [Example 256, 5-(2-(4-(azetidin-1-yl)cyclohexyl)-6-isopropyl-4H-pyrrolo[3,2-d]thiazol-5-yl)-1,3,4-trimethylpyridin-2(1H)-one]: 7.50, 7.46 and 4.77.
In the case of `Cc1c(-c2[nH]c3sc(C4CCC(NCC5(S(C)(=O)=O)CC5)CC4)nc3c2C(C)C)cn(C)c(=O)c1C` (single isomer, unassigned) [Example 257, 5-(6-isopropyl-2-(4-(((1-(methylsulfonyl)cyclopropyl)methyl)amino)cyclohexyl)-4H-pyrrolo[3,2-d]thiazol-5-yl)-1,3,4-trimethylpyridin-2(1H)-one], the values for the pIC50 in experiment [1], in experiment [2] and in experiment [3] were 9.07, 7.87 and 4.46, respectively.
The like results for `Cc1c(-c2[nH]c3sc(C4CCC(NCC5(S(C)(=O)=O)CC5)CC4)nc3c2C(C)C)cn(C)c(=O)c1C` (single isomer, unassigned) [Example 258, 5-(6-isopropyl-2-(4-(((1-(methylsulfonyl)cyclopropyl)methyl)amino)cyclohexyl)-4H-pyrrolo[3,2-d]thiazol-5-yl)-1,3,4-trimethylpyridin-2(1H)-one] were, in that order, 8.04, 7.44 and 4.53.
